Activity calls are given as the source filed them. The calls are words filed in the database; no cut-off is given here.
Columns and labels:
IGROV-1 [1] = test: Cytotoxicity against human IGROV1 cells after 72 hrs; assay type: functional, cell-based; conditions: IGROV-1, 72 h
NCI-H460 [2] = test: Cytotoxicity against human H460 cells after 1 hr; assay type: functional, cell-based; conditions: NCI-H460, 1 h
IGROV-1 [3] = test: Cytotoxicity against human IGROV1 cells after 1 hr; assay type: functional, cell-based; conditions: IGROV-1, 1 h
NCI-H460 [4] = test: Cytotoxicity against human H460 cells after 72 hrs; assay type: functional, cell-based; conditions: NCI-H460, 72 h
HT-29 [5] = test: Cytotoxicity against human mitoxantrone-resistant HT29 cells after 1 hr; assay type: functional, cell-based; conditions: HT-29, 1 h
Homo sapiens = species: Homo sapiens; test: Stimulation of human recombinant topoisomerase 1B-mediated SV40 DNA cleavage
HT-29 [6] = test: Cytotoxicity against human HT29 cells after 1 hr; assay type: functional, cell-based; conditions: HT-29, 1 h

Compound | IC50 (IGROV-1 [1]) [nM] | IC50 (NCI-H460 [2]) [nM] | IC50 (IGROV-1 [3]) [nM] | IC50 (NCI-H460 [4]) [nM] | IC50 (HT-29 [5]) [nM] | Activity (Homo sapiens) | IC50 (HT-29 [6]) [nM]
CC[C@@]1(O)C(=O)OCc2c1cc1n(c2=S)Cc2cc3ccccc3nc2-1 | 4.67 | 140 | 220 | 7.4 | 110 | Active | 170
CC[C@@]1(O)C(=O)OCc2c1cc1n(c2=O)Cc2cc3ccccc3nc2-1 [CAMPTOTHECIN] | 12 |  | 1650 | 6.2 |  |  | 

Reference: ChEMBL document CHEMBL1150278, “Thiocamptothecin” (J Med Chem, 2008)
